Legend:
α1 = α1 (no method described); type: binding
dopamine D2 receptor [1] = biological target: T1, dopamine D2 receptor (Rattus norvegicus, UniProt P61169); assay: Ratio Ant/Ag (intrinsic activity from low-affinity/high-affinity agonist state); type: binding; settings: Spiper. IC50 / Quin. IC50
Text: Efforts to induce antipsychotic activity with dopamine autoreceptor agonists have been successful (Corsini et al. Adv. Biochem. […] […] et at. […] A method for determining intrinsic activity at the dopamine D2 receptor was recently reported [Lahti et al., Mol. Pharm. […] Intrinsic activity is predicted using the ratio of the "low-affinity agonist" (LowAg) state of the receptor and the "high-affinity agonist" ([…]) state of the receptor, […]. These ratios correlate with the agonist, partial agonist, and antagonist activities of a given compound, which activities characterize a compounds ability to elicit an antipsychotic effect.

dopamine D2 receptor [2] = biological target: T1, dopamine D2 receptor; assay: 3H-spiroperidol (Spiper.) binding, affinity for the dopamine D-2 receptor, homogenized limbic brain tissue; set-up: homogenized limbic brain tissue; from tissue; host or cells: limbic brain tissue, homogenized
dopamine autoreceptor = biological target: T2, dopamine autoreceptor (Rattus norvegicus, UniProt P61169); assay: 3H-quinpirole (Quin.) binding, affinity for the dopamine autoreceptor, homogenized rat striatal brain tissue
T2 construct: homogenized rat striatal brain tissue; from tissue; host or cells: rat striatal brain tissue, homogenized
T2 sequence (P61169 whole entry): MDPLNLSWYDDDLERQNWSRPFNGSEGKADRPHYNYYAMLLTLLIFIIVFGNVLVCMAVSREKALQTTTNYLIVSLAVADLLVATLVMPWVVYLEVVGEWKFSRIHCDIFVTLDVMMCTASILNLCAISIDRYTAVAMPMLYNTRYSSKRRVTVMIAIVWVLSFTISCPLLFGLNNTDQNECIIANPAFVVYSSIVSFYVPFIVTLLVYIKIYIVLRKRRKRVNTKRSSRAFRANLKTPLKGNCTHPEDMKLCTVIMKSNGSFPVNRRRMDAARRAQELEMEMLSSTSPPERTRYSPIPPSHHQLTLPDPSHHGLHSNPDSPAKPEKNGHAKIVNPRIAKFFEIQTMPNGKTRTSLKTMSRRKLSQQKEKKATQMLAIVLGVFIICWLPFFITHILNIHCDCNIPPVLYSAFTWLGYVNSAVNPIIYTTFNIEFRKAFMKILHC

T1 sequence (P61169 whole entry): as above

Ratio Ant/Ag (dopamine D2 receptor [1]) | IC50 (dopamine D2 receptor [2]) [nM] | IC50 (dopamine autoreceptor) [nM] | Compound | IC50 (α1) [nM]
32 | 26500 | 831 | COc1ccc2c(c1)OC(CNCCC(C)C)CC2 (centres unmarked) | 
88 | 8960 | 102 | CCCN(CCC)CC1CCc2ccc(O)cc2O1 (centres unmarked) | 
32 | 23600 | 733 | CCCCNCC1CCc2ccc(OC)cc2O1 (centres unmarked) | 

Second part, the molecule before the results:

Compound | Ratio Ant/Ag (dopamine D2 receptor [1]) | IC50 (dopamine D2 receptor [2]) [nM] | IC50 (dopamine autoreceptor) [nM] | IC50 (α1) [nM]
CCCCCCNCC1CCc2ccc(O)cc2O1 (centres unmarked) |  |  |  | 221
CCCNCC1CCc2ccc(O)cc2O1 (centres unmarked) |  |  |  | 1160

— patent US5684039A, “Chroman-2-ylmethylamino derivatives” (American Home Products Corporation, priority 1996, dated 1997)
